The test system of data set [1] is patients with erosive hand osteoarthritis. Description: Clinical observational study of oral 10 mg montelukast daily in patients with erosive hand osteoarthritis (Example 4). The data set is classed as in vivo, human. The note with it: 10 mg daily oral, 3 to 16 months. The procedure: A preliminary clinical observational study was performed in patients suffering from erosive hand osteoarthritis.
50 patients with erosive hand osteoarthritis which were non-respondent or with limited response after treatment with analgesics and/or anti-inflammatories were selected for the study. The patients were administered 10 mg of montelukast daily by the oral route, using an orally dispersible composition prepared as disclosed in Example 1, according to a once-daily dosage regimen.
The following parameters were used to evaluate the efficacy of the treatment: (i) improvement in clinical symptoms; (ii) efficacy in pain relief; and (iii) improvement in radiological evaluation. All assessments were focused on one of the hands of the patients.
The improvement in clinical symptoms was assessed by evaluating the improvement in symptoms such as functionality, stiffness and deformity of the affected hand that entail an improvement in the quality of life of the patients.
For assessing the efficacy in pain relief, the patients were asked to evaluate the pain they felt using the visual analogue scale (VAS) methodology, both before the treatment and at the end of the treatment period.
For assessing the efficacy of the treatment in the radiological parameters of the hand, the following features in the affected joints were evaluated: a) edema, b) subchondral erosions, c) synovitis and d) tenosynovitis. These features were radiologically assessed by means of posteroanterior radiographs of the hand, performed before and after the treatment period. The treatment was considered to provide radiological improvement if there was observable improvement in at least two of the assessed features and no worsening in the remaining features.

Data set [2] has as its system patient with erosive hand osteoarthritis. The experiment in a line: Efficacy of topical treatment in one patient with erosive hand osteoarthritis (Example 6). The data set is classed as in vivo, human. The note with it: 12 weeks. On the procedure:
After a wash-up period of several weeks, the patient started treatment with a topical formulation prepared as disclosed in example 3, with a dosage of about 10 mg daily per hand, spread on the affected zone for a period of 12 weeks.

The subject of data set [3] is patients with erosive hand osteoarthritis. The experiment in a line: Clinical study of oral 20 mg montelukast daily in patients non-respondent to 10 mg (Example 5). It is filed as in vivo, human. On the procedure:
For this study, 9 patients were selected from the previous study (Example 4) among those who were non-respondents to the treatment (10 mg montelukast daily).
In the present study, the patients were administered a daily dose of montelukast of 20 mg by the oral route, also using an orally dispersible composition prepared as disclosed in Example 1, according to a once-daily dosage regimen. The age of the patients ranged from 52 to 78 years.
As in the previous study, for assessing the efficacy in pain relief, the visual analogue scale (VAS) methodology was used, where the pain was assessed on a scale of 0 to 10.
For assessing the efficacy in hand functionality improvement, also a visual analogue scale (VAS) of 0 to 10 was also used, wherein 0 meant full functionality, i.e., full ability to hold objects, and 10 meant absence of functionality, i.e., inability to hold any object
The “initial” values mean the values before starting the treatment, and the “final” values mean the values after completing the treatment.

The next data set relates to patients aged ≥6 years. The conditions noted are these: for example 200 mg/daily; cited from earlier work.
Where [4] appears, read: topical gel of example 3, about 10 mg daily per hand.
[5] abbreviates: 20 mg daily oral, beginning vs end of treatment.

Each structure is given as a SMILES string.

As to `CC(C)(O)c1ccccc1CC[C@@H](SCC1(CC(=O)O)CC1)c1cccc(/C=C/c2ccc3ccc(Cl)cc3n2)c1` [montelukast, 2-[1-[[(1R)-1-[3-[(E)-2-(7-chloroquinolin-2-yl)ethenyl]phenyl]-3-[2-(2-hydroxypropan-2-yl)phenyl]propyl]sulfanylmethyl]cyclopropyl]acetic acid], the “additional patients with no worsening of the assessed radiological parameters” value in data set [1] was determined as 10 patients. Further, in data set [1] (of 50 patients, posteroanterior radiographs), the “patients with improvement after radiological evaluation (at least two features improved, none worse)” value is reported as 28 patients. Besides, the “patients reporting effective pain relief (VAS reduction of at least 2 units on 0 to 10 scale)” value in data set [1] (out of 45 patients with pain before treatment) amounted to 28 patients. Also, in data set [1] (radiological evaluation), the “patients with improvement in edema” value stood at 19 patients, the “patients with improvement in erosions” value is 14 patients, the “patients with improvement in synovitis” value was found to be 28 patients and the “patients with improvement in tenosynovitis” value is given as 18 patients. Further, the “patients with improvement in clinical symptoms (functionality, stiffness, deformity)” value in data set [1] (once-daily, of 50 patients) is 32 patients. Moreover, in data set [2] (setting [4]), the “clinical symptoms of osteoarthritis” value is reported as “improvement in the clinical symptoms” and the pain relief entry is recorded as “significant pain relief”. Moreover, the “proportion of patients not responding to 10 mg daily that showed pain relief” value in data set [3] (20 mg daily oral) is reported as about 70%. Further, the adverse effects reported result in data set [3] (20 mg daily oral, 9 patients) is reported as “No adverse effects”. Also, in data set [3] (20 mg daily oral, all patients), the “improvement in hand functionality” value is 35%. In data set [3] (20 mg daily oral, almost 70% of the patients), the “pain relief in the responding patients” value amounted to 55%. Besides, in data set [3] (setting [5]), the “final VAS hand functionality score, mean” value is recorded as 4.56±0.39 and the “final VAS pain score, mean” value is on record as 3.89±0.54. Also, the “VAS hand functionality final, Min - Max” value in data set [3] (after completing 20 mg daily oral treatment, individual values) is 3-6. Besides, in data set [3] (after completing 20 mg daily oral treatment, individual values, scale 0 to 10), the “VAS pain final, Min - Max” value is recorded as 1-6. For the same molecule, the “VAS hand functionality final, Mean” value in data set [3] (after completing 20 mg daily oral treatment, scale 0 (full functionality) to 10 (absence)) was 4.56. For the same molecule, the “VAS pain final, Mean” value in data set [3] (after completing 20 mg daily oral treatment, scale 0 to 10, 9 patients) came out at 3.89. The “VAS hand functionality initial, Min - Max” value in data set [3] (before starting 20 mg daily oral treatment (baseline), individual values) is given as 5-8. The “VAS pain initial, Min - Max” value in data set [3] (before starting 20 mg daily oral treatment (baseline), individual values, scale 0 to 10) is listed as 5-9. For the same molecule, the “VAS hand functionality initial, Mean” value in data set [3] (before starting 20 mg daily oral treatment (baseline), scale 0 (full functionality) to 10 (absence)) worked out at 7.00. In addition, the “VAS pain initial, Mean” value in data set [3] (before starting 20 mg daily oral treatment (baseline), scale 0 to 10, 9 patients) stood at 7.00. The “adverse effects at high doses” value in the data set on patients aged ≥6 years is recorded as “does not cause adverse effects”.

For the molecule `CCC(=O)O[C@]1(C(=O)COC(C)=O)CC[C@H]2[C@@H]3C[C@H](C)C4=CC(=O)C=C[C@]4(C)[C@H]3[C@@H](O)C[C@@]21C` [methylprednisolone aceponate], in data set [2] (topical, once daily), the radiological assessment entry is on record as “progression of the disease”. Besides, the “pain score (VAS, 0-10 scale) remaining under treatment” value in data set [2] (topical, once daily, no improvement in pain relief) is recorded as “higher than 5”.

The record behind these values is US12539296B2, “Montelukast for the treatment of erosive hand osteoarthritis” (MMC INTELLECTUAL PROPERTY INSTITUTE, S.L., priority 2018, dated 2026).
